Data taken from patent publication US7820637B2, “Use of 5′-methylthioadenosine (MTA) in the prevention and/or treatment of autoimmune diseases and/or transplant rejection” (Proyecto de Biomedicina Cima, S.L., priority 2005, dated 2010).

Experiments:
[1] = test system: splenocytes (MBP-specific T-lymphocyte response); experiment: Lymphocyte proliferation assay (MBP-induced, splenocytes of treated rats); type: cell-based, rat; details: splenocytes of Lewis rats immunised with MBP, day 16 after immunisation, treated in vivo with MTA; MBP 10 μg/ml
Description: The splenocytes were purified by means of Ficoll Hypaque density centrifugation starting from the rats with EAE and non-immunised rats. The lymphocite proliferation assay was conducted in the same manner as previously described [Villoslada, P., et al., J. Exp Med, 2000. 191 (10):1799-806].
Briefly, the splenocytes were placed in culture at a concentration of 2×10^6/ml in RPMI 1640 medium supplemented with 10% fetal bovine serum and penicillin/streptomycin, in the presence or absence of phytohemagglutinin (PHA, 5 μg/ml), MBP (10 μg/ml), MTA (100 μM) and DMSO. The cultures were incubated for 5 days in 96-well round-base plates (0.2 ml/well) at 37° C. The wells were struck with 0.5 μCi [^3H]TdR for 18 hours. The reading was performed using a liquid scintillation counter. The results were expressed as the mean stimulation index of the triplicate determinations.
In order to determine whether treatment with MTA modified the peripheral immune system's response to the antigen used in the immunisation, the MBP-induced proliferation responses were measured in splenocytes of animals treated with MTA and placebo (in Lewis rats). […] Therefore, it is observed that MTA inhibits the MBP-specific lymphocyte activation, which points to its immunomodulatory effect.

[2] = test system: IL-2, IFN-γ, TNF-α, IL-10 and iNOS mRNA; experiment: Quantitative real-time PCR of cytokine and pro-inflammatory mediator mRNA in splenocytes; type: in vivo, rat; details: splenocytes of Lewis rats treated with MTA; relative to 18S rRNA (FIG. 5)
Description: Spleen, liver and blood samples were also obtained from each animal. The spleens and the livers were quickly frozen in liquid nitrogen and kept in fragments at −80° C. in order to be able to conduct the studies with RT-PCR (reverse transcription and polymerase chain reaction). The blood was centrifuged at 800 rpm for 10 minutes in order to obtain the serum, which was kept at −80° C.
The spleen and liver tissue segments were homogenised in RNA lysis buffer with 2% β-mercaptoethanol using a manual homogeniser. The total RNA was extracted using the Rneasy Mini Kit (Quiagen), following the manufacturer's instructions. During RNA purification, the DNA was eliminated by treatment with DNase. The RNA concentration and purity was determined by measuring the absorbance at 260 nm and 280 nm with a spectrophotometer (Eppendorf). Reverse transcription of the total RNA was performed using the High Capacity cDNA Archive Kit (Applied Biosystems). […]
For the quantitative PCR, the TaqMan Universal Master Mix (Applied Biosystems) was used. […]
The IL-2, IFN-γ, TNF-α, IL-10 and iNOS mRNA expression levels were quantified in relation to the rRNA 18S constitutive gene.
It was assessed whether MTA had the capacity to modify the expression of cytokines and other pro-inflammatory mediators. The IL-2, IFN-γ, TNF-α, IL-10 and iNOS gene expression was analysed by means of quantitative real-time PCR (RT-PCR). […]

[3] = test system: inflammatory infiltrates in brain and spinal cord of Lewis rats immunised with MBP; experiment: Histopathology and immunohistochemistry of brain and spinal cord; type: in vivo, rat
Description: The two Lewis rat groups were anaesthetised and injected by intracardiac route with 4% paraformaldehyde in 0.1 M phosphate buffer (pH 7.6) on day 16 of the disease. The brains and the cervical, thoracic and lumbar spinal cord segments were extracted and fixated for the entire night at 4° C. After fixation, the tissues were soaked in paraffin for histopathology and immunohistochemistry.
Histological evaluation of the brain and spinal cord sections included in paraffin was conducted. The sections were stained with hematoxylin-eosin (HE) and Luxol fast-blue in order to be able to assess the tissues' inflammation and demyelination. 24-30 sagital sections were examined for each rat. The blind semi-quantitative histological evaluation of inflammation and demyelination was conducted as previously described [Villoslada, P., et al., J. Exp Med, 2000. 191 (10):1799-806].
The immunohistochemical procedures were conducted on […] brain and medulla sections included in paraffin. The endogenous peroxidase activity was deactivated by means of 0.3% H2O2 in methanol for 20 min.
The sections were incubated for 30 min in PBS with 0.5% Tween® 20 and 10% goat or horse serum (Vector Laboratorios) and for 2 hours in PBS with 0.5% Tween® 20 and the primary antibodies in the following dilutions: rabbit antiglial fibrillary acid polyclonal anti-protein antibody (GFAP), 1:1,000 (Dakocytomation); mouse beta-amyloid precursor anti-protein antibody (APP), 1:100 (Zymed Laboratorios); mouse […] (OX-6), 1:200 (Serotec); rat anti-CD8 antibody, 1:250 (Serotec); type II anti-iNOS antibody, 1:250 (Serotec); rat anti-CD68 antibody (ED1), 1:200 (Serotec) and rat anti-CD43 antibody (W3/13), 1:50 (Serotec). Subsequently, the sections were washed with PBS and incubated for 45 min at room temperature with the appropriate biotinylated secondary IgG antibody (1:100 in PBS; Vector Laboratorios), followed by several washes in PBS/Tween® and a 45-min incubation at room temperature with the avidin-biotin peroxidase complex (ABC, Vector Laboratorios).
The immunoreaction specificity was determined by incubating the sections without the primary antibody. The images were obtained using an optic microscope.
The neuropathological evaluation confirmed the observed clinical protection. […] Inflammatory lesions were found in both the white and grey matter of the cervical, thoracic and lumbar spinal cord, and the brain. […] There were significant differences between the placebo animals and those treated with MTA in terms of both the severity and the central nervous system (CNS) regions affected. Treatment with MTA inhibits the development of inflammatory EAE in Lewis rats immunised with MBP.

[4] = test system: chronic-recurrent EAE (CR-EAE) in Dark Agouti (DA) rats immunised with MOG; experiment: Chronic-recurrent EAE (CR-EAE) clinical score and survival in DA rats immunised with rMOG; type: in vivo, rat
[5] = test system: acute EAE in Lewis rats immunised with MBP; experiment: Acute EAE induction and clinical score in Lewis rats immunised with MBP; type: in vivo, rat
[6] = immunohistochemical staining, MTA versus placebo group
[7] = 100 μM MTA i.p. daily from day 15 after immunisation
[8] = MTA 4.3 mg/animal i.p. daily from immunisation

CSCC1OC(n2cnc3c(N)ncnc32)C(O)C1O (stereo not drawn) [MTA, 5′-methylthioadenosine]
stimulation index (MBP-specific proliferation response) [1]: 1.18±0.4
mRNA expression of cytokines (IL-2, IFN-γ, TNF-α, IL-10, iNOS) versus placebo group [2]: lower
number of positive ED1 and W3/13 cells in inflammatory infiltrates [3, 6]: higher in the placebo group
proportions of positive OX-6 cells in inflammatory infiltrates [3, 6]: same proportions
stains for APP and iNOS ([3]; immunohistochemical staining, both groups): very low detection levels
number and size of the inflammatory infiltrates versus placebo ([3]; spinal cord and brain, Lewis rats immunised with MBP (FIG. 6)): lower
Cumulative EAE Score [4, 7]: 23 ± 20
Incidence 2nd outbreak [4, 7]: 10/10
Onset (days) 2nd outbreak [4, 7]: 26 ± 6 days
Max. EAE Score ([4]; 100 μM MTA i.p. daily from day 15 after immunisation, scale 0-5): 1.8 ± 1.5
survival rate versus placebo group ([4]; survival curves to score 3.5 and to exitus (FIG. 3)): significantly higher
EAE Incidence (%) [5, 8]: (28.57%)
EAE Incidence (rats with EAE / number of rats) [5, 8]: 4/14
Cumulative EAE Score ([5]; MTA i.p. daily from immunisation): 2 ± 0.07
Onset of EAE ([5]; MTA i.p. daily from immunisation, treated animals that developed symptoms): 15 ± 1.2 days
